Results published in patent publication US20130245006A1, “NOVEL INDOLIZINE DERIVATIVES, AND PREPARATION AND THERAPEUTIC USE THEREOF” (SANOFI, priority 2010, published 2013).
≈ marks a conversion by molar mass, not a printed value. Where a name gives a salt, the structure may show the parent alone.

Assays:
[1] = Solubility by HPLC relative to a reference sample; format: physicochemical; conditions: aqueous buffer, phosphate buffer, at the pH given
Description: The evaluation of the solubility of the compounds of the invention is carried out at pH 4 (using a phosphate buffer, […]) by HPLC using an H2O/CH3CN/CH3SO3H gradient, relative to a reference sample (a dilute solution of the product to be evaluated which serves as an internal control). The solubility S results are expressed in mg/ml. Generally, the compounds of the present invention have a solubility S≧4 mg/ml at pH≧4. Among them, mention may be made of the solubilities of the following compounds in the table below: […]

| SMILES | melting point | solubility [1] |
| --- | --- | --- |
| CCc1cc2cc(C(=O)N(CC)Cc3ccn(C)n3)ccn2c1C(=O)c1ccc(CCCNC(C)(C)C)cc1 [compound 44, 3-[4-(3-tert-Butylaminopropyl)benzoyl]-2-ethylindolizine-7-carboxylic acid ethyl(1-methyl-1H-pyrazol-3-ylmethyl)amide] | 149 °C | – |
| CCOCCN(CC)C(=O)c1ccn2c(C(=O)c3ccc(CCCNC4CCCC4)cc3)c(CC)cc2c1 [compound 37, 3-[4-(3-Cyclopentylaminopropyl)benzoyl]-2-ethylindolizine-7-carboxylic acid (2-ethoxyethyl)ethylamide] | 146.4 °C | – |
| CCCCc1cc2cc(C(=O)N(CC)CC)ccn2c1C(=O)c1ccc(C2CCNCC2)cc1 [compound 66, 2-Butyl-3-(4-piperidin-4-yl-benzoyl) indolizine-7-carboxylic acid diethylamide] | 149.6 °C | – |
| CCc1cc2cc(C(=O)N(CC)Cc3nnn(C)n3)ccn2c1C(=O)c1ccc(CCCNC(C)(C)C)cc1 (as salt: hydrochloride) [Compound No. 17, 3-[4-(3-tert-Butylaminopropyl)benzoyl]-2-ethylindolizine-7-carboxylic acid ethyl(2-methyl-2H-tetrazol-5-ylmethyl)amide] | 172 °C | – |
| CCN(Cc1nnn(C)n1)C(=O)c1ccn2c(C(=O)c3ccc(CCCNC(C)(C)C)cc3)c(C)cc2c1 [compound 78, 3-[4-(3-tert-Butylaminopropyl)benzoyl]-2-methylindolizine-7-carboxylic acid ethyl(2-methyl-2H-tetrazol-5-ylmethyl)amide] | 153 °C | – |
| CCc1cc2cc(C(=O)O[C@H]3CNC(=O)C3)ccn2c1C(=O)c1ccc(CCCNC(C)(C)C)cc1 [compound 52, 3-[4-(3-tert-Butylaminopropyl)benzoyl]-2-ethylindolizine-7-carboxylic acid (R)-5-oxopyrrolidin-3-yl ester] | 162 °C | – |
| CCc1cc2cc(C(=O)N(CC)Cc3cc(C)on3)ccn2c1C(=O)c1ccc(CCCNC(C)(C)C)cc1 [compound 46, 3-[4-(3-tert-Butylaminopropyl)benzoyl]-2-ethylindolizine-7-carboxylic acid ethyl(5-methylisoxazol-3-ylmethyl)amide] | 175 °C | 1730 µg/mL (≈ 3.27 mM) |
| CCc1cc2cc(C(=O)OCc3nnn(C)n3)ccn2c1C(=O)c1ccc(CCCNC(C)(C)C)cc1 [compound 49, 3-[4-(3-tert-Butylaminopropyl)benzoyl]-2-ethylindolizine-7-carboxylic acid 2-methyl-2H-tetrazol-5-ylmethyl ester] | 203 °C | – |
| CCc1cc2cc(C(=O)N(CC(=O)OC)C(C)C)ccn2c1C(=O)c1ccc(CCC(C)(C)NC2CCCC2)cc1 (as salt: hydrochloride) [Compound No. 19, ({3-[4-(3-Cyclopentylamino-3-methylbutyl)benzoyl]-2-ethylindolizine-7-carbonyl}isopropylamino)acetic acid methyl ester] | 245 °C | – |
| CCc1cc2cc(C(=O)N(CC)Cc3cnn(C)c3)ccn2c1C(=O)c1ccc(CCCNC(C)(C)C)cc1 [compound 45, 3-[4-(3-tert-Butylaminopropyl)benzoyl]-2-ethylindolizine-7-carboxylic acid ethyl(1-methyl-1H-pyrazol-4-ylmethyl)amide] | 173 °C | – |
| CCc1cc2cc(C(=O)N(CC)Cc3nnn(C)n3)ccn2c1C(=O)c1ccc(CCC(C)(C)NC(C)(C)C)cc1 (as salt: hydrochloride) [Compound No. 18, 3-[4-(3-tert-Butylamino-3-methylbutyl)benzoyl]-2-ethylindolizine-7-carboxylic acid ethyl(2-methyl-2H-tetrazol-5-ylmethyl)amide] | 122 °C | – |
| CCc1cc2cc(C(=O)N3CCNC(=O)C3)ccn2c1C(=O)c1ccc(CCCNC(C)(C)C)cc1 [compound 38, 4-{3-[4-(3-tert-Butylaminopropyl)benzoyl]-2-ethylindolizine-7-carbonyl}piperazin-2-one] | 122 °C | – |
| CCN(Cc1nnn(C)n1)C(=O)c1ccn2c(C(=O)c3ccc(CCCNC(C)(C)C)cc3)c(C3CCC3)cc2c1 [compound 42, 3-[4-(3-tert-Butylaminopropyl)benzoyl]-2-cyclobutylindolizine-7-carboxylic acid ethyl(2-methyl-2H-tetrazol-5-ylmethyl)amide] | 195 °C | – |
| CCCCc1cc2cc(C(=O)N(CC)Cc3nc(C)no3)ccn2c1C(=O)c1ccc(C2CCNCC2)cc1 [compound 80, 2-Butyl-3-(4-piperidin-4-ylbenzoyl)indolizine-7-carboxylic acid ethyl(3-methyl-[1,2,4]oxadizol-5-ylmethyl)amide] | – | 4200 µg/mL (≈ 7.96 mM) |
| CCCCc1cc2cc(C(=O)N(CC)CC(=O)OC)ccn2c1C(=O)c1ccc(CCCN(CCCC)CCCC)cc1 [Compound No. 5, ({2-Butyl-3-[4-(3-dibutylaminopropyl)benzoyl]indolizine-7-carbonyl}ethylamino)acetic acid methyl ester] | – | 5900 µg/mL (≈ 10 mM) |
| CCc1cc2cc(C(=O)N(CC(=O)OC)C(C)C)ccn2c1C(=O)c1ccc(CCCC2(NC)CCCC2)cc1 [Compound No. 16, [(2-Ethyl-3-(4-[3-(1-methylaminocyclopentyl)propyl]benzoyl}indolizine-7-carbonyl)isopropylamino]acetic acid methyl ester] | – | 630 µg/mL (≈ 1.15 mM) |
| CCCCc1cc2cc(C(=O)N(CC)CC(=O)O)ccn2c1C(=O)c1ccc(CCCN(CCCC)CCCC)cc1 [Compound No. 6, ({2-Butyl-3-[4-(3-dibutylaminopropyl)benzoyl]indolizine-7-carbonyl}ethylamino)acetic acid] | – | 4900 µg/mL (≈ 8.51 mM) |
| CCc1cc2cc(C(=O)N3CCNC(=O)CC3)ccn2c1C(=O)c1ccc(CCCNC2CCCC2)cc1 [compound 53, 1-{3-[4-(3-Cyclopentylaminopropyl)benzoyl]-2-ethylindolizine-7-carbonyl}[1,4]diazepam-5-one] | 176 °C | 6930 µg/mL (≈ 13.5 mM) |
| CCN[C@@H](CCc1ccc(C(=O)c2c(CC)cc3cc(C(=O)N(CC)Cc4nnn(C)n4)ccn23)cc1)C(C)C (as salt: hydrochloride) [Compound No. 20, 2-Ethyl-3-[4-((S)-3-ethylamino-4-methylpentyl)benzoyl]indolizine-7-carboxylic acid ethyl(2-methyl-2H-tetrazol-5-ylmethyl)amide] | 100 °C | – |
| CCCCc1cc2cc(C(=O)N(CC)Cc3nnn[nH]3)ccn2c1C(=O)c1ccc(CCCN(CCCC)CCCC)cc1 [Compound No. 11, 2-Butyl-3-[4-(3-dibutylaminopropyl)benzoyl]indolizine-7-carboxylic acid ethyl(1H-tetrazole-5-ylmethyl)amide] | – | 240 µg/mL (≈ 0.4 mM) |
| CCCCc1cc2cc(C(=O)N(CC)CC(=O)OCC)ccn2c1C(=O)c1ccc(CCCN(CCCC)CCCC)cc1 [compound 26, ({2-Butyl-3-[4-(3-dibutylamino-propyl)benzoyl]indolizine-7-carbonyl}ethylamino)acetic acid ethyl ester] | – | 1140 µg/mL (≈ 1.89 mM) |
| CCCCN(CCCC)CCCc1ccc(C(=O)c2ccc3cc(C(=O)N(CC(=O)OC)C(C)C)ccn23)cc1 [compound 56, ({3-[4-(3-Dibutylamino-propyl)benzoyl]indolizine-7-carbonyl}isopropyl-amino)acetic acid methyl ester] | – | 8300 µg/mL (≈ 15.2 mM) |
